Data from patent US20100196469A1, “Pharmaceutical Formulation containing an HMG-COA Reductase Inhibitor and method for the preparation thereof” (PHARMATHEN S.A., priority 2007, published 2010).
Structures can show the parent of a compound that is named as a salt.

Assays:
Type in all cases: physicochemical
[1] = Stability after preparation and after 3 months in HDPE containers, normal and intermediate conditions (impurities); conditions: for Atorvastatin Amide / Desfluoro: limit NMT 0.3%; for Atorvastatin Diepoxide: limit NMT 0.6%; for Diketo1,2-Diol + Diketoepoxide: limit NMT 1.20%; for Lactone: limit NMT 2%; for Total: total impurities; for Unknown: unknown impurity
Description: (§1) One of the main objects of the present invention was to prepare a product with acceptable stability. For this reason 3 batches of each composition were exposed to normal, intermediate and accelerated stability studies according to the current ICH guidelines.
Subsequently, the tablets of compositions 2 were packed into white opaque, HDPE plastic […] C.±2° C. and relative humidity of 65%±5% for intermediate conditions. The results for composition 2 and of the active ingredient directly after preparation and after 3 months stability are described in the stability table below (TABLE 3).

[2] = Compatibility test of Atorvastatin alone and Atorvastatin with Attapulgite at 40° C./75% RH (impurities)
[3] = Stability of unpacked tablets at 40° C.±2° C. and 75%±5% RH (impurities); conditions: 40°/75 RH
Description: as §1
The tablets of the above compositions were exposed at a temperature of 40° C.±2° C. and relative humidity of 75%±5% without being packed in any type of container or blister. The tablets were tested in predetermined time intervals. The results for each composition are described in the stability table (TABLE 1).

Atorvastatin Amide ([1]; 0 months): 0.06% | Desfluoro ([1]; 0 months): 0.06% | Atorvastatin Diepoxide ([1]; 0 months): 0.25% | Diketo1,2-Diol + Diketoepoxide ([1]; 0 months): 0.84% | Lactone ([1]; 0 months): 0.07% | Total ([1]; 0 months): 1.69% | Unknown ([1]; 0 months): 0.34% | Atorvastatin Amide ([1]; 3 months 25° C./60% RH): 0.06% | Desfluoro ([1]; 3 months 25° C./60% RH): 0.03% | Atorvastatin Diepoxide ([1]; 3 months 25° C./60% RH): 0.30% | Diketo1,2-Diol + Diketoepoxide ([1]; 3 months 25° C./60% RH): 0.92% | Lactone ([1]; 3 months 25° C./60% RH): 0.05% | Total ([1]; 3 months 25° C./60% RH): 1.96% | Unknown ([1]; 3 months 25° C./60% RH): 0.38% | Atorvastatin Amide ([1]; 3 months 30° C./65% RH): 0.06% | Desfluoro ([1]; 3 months 30° C./65% RH): 0.03% | Atorvastatin Diepoxide ([1]; 3 months 30° C./65% RH): 0.38% | Diketo1,2-Diol + Diketoepoxide ([1]; 3 months 30° C./65% RH): 1.10% | Lactone ([1]; 3 months 30° C./65% RH): 0.05% | Total ([1]; 3 months 30° C./65% RH): 2.12% | Unknown ([1]; 3 months 30° C./65% RH): 0.4% | Diketo1,2-Diol + Diketoepoxide ([2]; limit 1.20%): 0.39% | Atorvastatin Amide ([2]; limit NMT 0.3%): 0.05% | Desfluoro ([2]; limit NMT 0.3%): 0.07% | Methyl Ester ([2]; limit NMT 0.3%): 0.01% | Atorvastatin Diepoxide ([2]; limit NMT 0.6%): 0.20% | Lactone ([2]; limit NMT 2%): 0.34% | Total ([2]; total impurities): 1.29% | Atorvastatin Amide [3]: 0.07% | Atorvastatin Diepoxide [3]: 0.34% | Desfluoro [3]: 0.08% | Diketo1,2-Diol + Diketoepoxide [3]: 0.69% | Lactone [3]: 0.45% | Total ([3]; total impurities): 1.87%
Compound: CC(C)c1c(C(=O)Nc2ccccc2)c(-c2ccccc2)c(-c2ccc(F)cc2)n1CC[C@@H](O)C[C@@H](O)CC(=O)O (relative stereo) [Atorvastatin, [R—(R*,R*)]-2-(4-fluorophenyl)-b,d-dihydroxy-5-(1-methylethyl)-3-phenyl-4[(phenylamino)carbonyl]-1H -pyrrole-1-heptanoic acid, calcium salt (2:1) trihydrate]
